Data from patent US20110143993A1, “ENDOTHELIAL BASEMENT MEMBRANE TARGETING PEPTIDE LIGANDS” (The Brigham and Women's Hospital, Inc., priority 2009, published 2011).
pIC50: −log10 of the molar value.

Tests used:
[1] = Pharmacokinetic studies with 14C-paclitaxel or 3H-PLGA; set-up: species or system Sprague Dawley rats; conditions: male, Sprague Dawley, rat, in vivo
Method: 12 male Sprague Dawley rats weighing approximately 250 g with bilateral jugular catheters were obtained from Charles River Laboratories (Wilmington, Mass.). […] 200-500 μL of blood was collected via the right catheter at 1, 3, 6, 9 and 24 h after injection (n=6). In a separate study to assess targeted lipid-polymeric nanoparticle polymer levels in circulation, 400 μl, of NPs synthesized with ^3H-PLGA was injected in saline (100 μCi/mL) and 100 μL of blood was collected at 1, 3, 6, 9, 24, 48, 96 and 120 h after injection (n=6). Blood radioactivity was quantified as disintegrations per minute (DPM) using the PerkinElmer Tri-Carb 2810TR liquid scintillation analyzer.
Blood and tissue samples were processed as described by Chan J M, et al. Methods Mol. Biol. 2010; 624:163-175, with modifications. Solvable tissue solubilizer and Hionic-Fluor scintillation cocktail were purchased from PerkinElmer (Waltham, Mass.). All samples were weighed before processing. To prepare blood samples for radioisotope counting, 1.5 mL of tissue solubilizer was added to ≦0.5 mL blood and incubated at 55-60° C. for 2 h to dissolve the blood samples. Next, 50 μL of 0.5 mol/L EDTA-di-sodium salt solution was added to reduce foaming and 0.5 mL of hydrogen peroxide (300 g/L) was added dropwise with gentle agitation. Samples were further incubated at 55-60° C. for 1 h. To prepare tissue samples for radioisotope counting, kidney, spleen, liver, heart, and lung tissues (≦150 mg) were similarly processed, except with 4.0 mL of tissue solubilizer instead. Finally, 16 mL of Hionic-Fluor scintillation cocktail was added to both blood and tissue samples, and samples were subjected to temperature and light-adaptation for 1 h before counting. Sample radioactivity was read as disintegrations per minute (DPM) of either ^14C or ^3H radioisotopes using the PerkinElmer Tri-Carb 2810TR liquid scintillation analyzer, and standardized as DPM per gram of tissue or blood (DPM/g) based on the weight of the sample. […]

Swiss albino mice = assay: in vivo
Method: (§1) Clinical monitoring over seven days was carried out for any signs of adverse effects.
(§2) At the end of the study, animals were sacrificed by CO2 inhalation. Gross necropsy was performed and H&E sections of the major organs (liver, lung, heart, spleen, kidney, nerves) were examined for any signs of toxicity.

in vivo = conditions: male, Swiss albino, mouse, in vivo, iv
Method: as §1, §2

Matrigel [2] = assay: Phage clone binding to Matrigel (anti-M13 ELISA, ABTS absorbance); conditions: ABTS absorbance 405 nm vs 490 nm, 10^10 p.f.u. per clone
Method: 96-well plates were coated with 100 μL 1/50 dilutions of Matrigel in TBS overnight at 4° C., or TBS buffer only. Plates were blocked with 3% BSA/TBS for 2 h at RT and washed three times. 10^10 p.f.u. of each phage clone was added in 0.5% TBST in triplicate to either Matrigel or BSA-coated wells. Bound phage particles were detected with peroxidase-conjugated mouse anti-M13 monoclonal antibodies at 1/5000 dilution (Amersham Pharmacia Biotech, Piscataway, N.J.). After a 1 h incubation, the reaction was developed with 2,2′-azino-bis(3-ethylbenzthiazoline-6-sulphonic acid) (ABTS) (Amersham) and the absorbance was read at 405 nm against a reference wavelength of 490 nm with a SpectraMax Plus 384 Microplate reader (Molecular Devices, Sunnyvale, Calif.).

Matrigel [3] = assay: Sequence-specific competition binding of phage clones against synthetic peptide equivalents; conditions: synthetic peptide vs cognate phage on Matrigel, n=3
Method: Matrigel-coated and blocked 96-well plates were incubated in triplicate with 10^−5-10^−10 M peptide concentrations and 10^9 pfu of phage in 100 μL 0.5% TEST. After 1 h at RT, bound phages were labeled with anti-M13 mAb and color was developed and detected using ABTS absorbance (405-490 nm). Peptide inhibition curves were normalized on a percentage scale to provide an estimate of the IC50, which was calculated using a dose-response curve fit using the Origin 8 data analysis software (Northampton, Mass.) by the formula:
Y=Bottom+(Top−Bottom)/(1+10̂((Log IC50−X)*HillSlope)).

Matrigel [4] = assay: Phage titer count analysis on Matrigel; type: binding; conditions: phage input 10^12/mL p.f.u., n=3
Source text: (§3) In a sequence-specific competition assay, the context-dependence of the phage towards the peptide-collagen IV binding interaction was investigated. […] The binding of phage C-11 was investigated in three independent titer count analyses. Phage titers of C-11 were compared against the library (R0) for binding to Matrigel and collagen IV with an initial phage input of 10^12/mL plaque forming units (p.f.u.).

collagen IV = assay: Phage titer count analysis on collagen IV; type: binding, human; conditions: phage input 10^12/mL p.f.u., n=3
Source text: as §3

[5] = 168 h after single i.v. dose, paclitaxel 10 mg/kg, targeted nanoparticles 35 mg/kg, mean ± SD n=6

CC(=O)O[C@H]1C(=O)[C@@]2(C)[C@H]([C@H](OC(=O)c3ccccc3)[C@]3(O)C[C@H](OC(=O)[C@H](O)[C@@H](NC(=O)c4ccccc4)c4ccccc4)C(C)=C1C3(C)C)[C@]1(OC(C)=O)CO[C@@H]1C[C@@H]2O [paclitaxel]
time after which levels in circulation could not be further detected [1]: 24 h
t1/2α (h), half-life of distribution phase ([1]; iv): 0.64 h
t1/2β (h), half-life of elimination phase ([1]; iv): 8.02 h
hematological finding at day 7 (Swiss albino mice; 10 mg/kg, platelet count<400×10^9/L in two mice): signs of mild thrombocytopenia
lethality (Swiss albino mice; 15 mg/kg dose, 1.2 mg/mL, mice i.v.): immediate death of two mice
ALP, alkaline phosphatase (Swiss albino mice; [5]): 41.7 ± 1.77 U/L
Baso, basophils (Swiss albino mice; [5]): 0.140 ± 0.078%
Eo, eosinophils (Swiss albino mice; [5]): 0.0023 ± 0.004%
HGB, hemoglobin (Swiss albino mice; [5]): 8.81 ± 0.49 mmol/L
LYMPH, lymphocytes (Swiss albino mice; [5]): 0.69 ± 0.13%
MCH, mean cell hemoglobin (Swiss albino mice; [5]): 17.1 ± 0.679 pg
MCHC (Swiss albino mice; [5]): 17.9 ± 0.47 mmol/L
MCV, mean cell volume (Swiss albino mice; [5]): 59.5 ± 1.55 fL
Mono, monocytes (Swiss albino mice; [5]): 0.167 ± 0.064%
NEUT, neutrophils (Swiss albino mice; [5]): 0.002 ± 0.002%
PLT, platelets (Swiss albino mice; [5]): 1026 ± 533 ×10^9/L
RBC, red blood cells (Swiss albino mice; [5]): 8.30 ± 0.598 ×10^12/L
WBC, white blood cells (Swiss albino mice; [5]): 2.05 ± 0.454 ×10^9/L
ALT, alanine aminotransferase (Swiss albino mice; mouse, in vivo): 61.01 ± 6.10 U/L
AST, aspartate aminotransferase (Swiss albino mice; mouse, in vivo): 119.83 ± 8.23 U/L
MTD (in vivo): 10 mg/kg

KIFVWPY [Clone A-9, heptapeptide from phage display against collagen IV; phage clone and synthetic peptide equivalent]
binding to Matrigel compared with the random library (R0) (Matrigel [2]): best candidates
pIC50 (Matrigel [3]): 6.26

KIWKLPQ [Clone C-10, heptapeptide from phage display against collagen IV; phage clone and synthetic peptide equivalent]
binding to Matrigel compared with the random library (R0) (Matrigel [2]): best candidates
pIC50 (Matrigel [3]): 6.04

KLWVLPK [Clone C-11, heptapeptide from phage display against collagen IV; phage clone and synthetic peptide equivalent]
binding to Matrigel compared with the random library (R0) (Matrigel [2]): best candidates
Matrigel binding compared to the library (phage titer) (Matrigel [4]): approximately 300 fold
pIC50 (Matrigel [3]): 6.93
collagen IV binding compared to the library (phage titer) (collagen IV): approximately 900 fold

KVWSLPQ [Clone A-8, heptapeptide from phage display against collagen IV; phage clone and synthetic peptide equivalent]
binding to Matrigel compared with the random library (R0) (Matrigel [2]): best candidates
pIC50 (Matrigel [3]): 5.92
